Assay results reported in US9301526B2, “Compounds with nematicidal activity” (BAYER INTELLECTUAL PROPERTY GMBH, priority 2011, dated 2016).

Legend:
Type in all cases: in vivo
Meloidogyne incognita = Meloidogyne incognita test (gall formation on salad seedlings in sand); details: application rate 20 ppm; after 14 days; 100% = no galls, 0% = galls equal to untreated control
Description: Meloidogyne Incognita—Test
Solvent: 125.0 parts by weight of acetone
To produce a suitable preparation of active compound, 1 part by weight of active compound is mixed with the stated amount of solvent, and the concentrate is diluted with water to the desired concentration. Vessels are filled with sand, a solution of the active ingredient, a suspension containing eggs and larvae of Meloidogyne incognita and salad seeds. The salad seeds germinate and the seedlings grow. Galls develop in the roots.
After 14 days the nematicidal activity is determined on the basis of the percentage of gall formation. 100% means that no galls were found; 0% means that the number of galls found on the roots of the treated plants was equal to that in untreated control plants.

[1] = test system: Haemonchus contortus larvae; assay: Haemonchus contortus test (HAEMCO), larval mortality; details: after 5 days, 100% = all larvae killed
Description: Haemonchus contortus—Test (HAEMCO)
(§1) Solvent: dimethyl sulfoxide
(§2) To produce a suitable preparation of active compound, 10 mg of active compound are dissolved in 0.5 ml solvent, and the concentrate is diluted with “Ringer's solution” to the desired concentration.
Approximately 40 Haemonchus contortus larvae are transferred into a test tube containing compound solution. After 5 days percentage of larval mortality are recorded. 100% efficacy means all larvae are killed, 0% efficacy means no larvae are killed.

Cooperia curticei larvae = assay: Cooperia curticei test (COOPCU), larval mortality; details: application rate 100 ppm; after 5 days; 100% = all larvae killed
Description: Cooperia Curticei-Test (COOPCU)
as §1, §2
Approximately 40 Cooperia curticei larvae are transferred into a test tube containing compound solution. After 5 days percentage of larval mortality are recorded. 100% efficacy means all larvae are killed; 0% efficacy means no larvae are killed.

| SMILES | nematicidal activity on the basis of the percentage of gall formation (Meloidogyne incognita) [%] | also measured |
| --- | --- | --- |
| CC(CNC(=O)c1ccccc1I)c1ccc(C(F)(F)F)cn1 (centres unmarked) [Ia-47] | 100 |  |
| O=C(NCCc1cnc(C(F)(F)F)cc1Cl)c1c(F)cccc1F [Ib-51] | 70 | activity (percentage of larval mortality) ([1]; application rate 100 ppm): 90% |
| O=C(NCCc1cnc(C(F)(F)F)cc1Cl)c1ccccc1Cl [Ib-49] |  | activity (percentage of larval mortality) ([1]; application rate 100 ppm): 100% |
| CC(Cc1ncc(Cl)cc1Cl)NC(=O)c1ccccc1C(F)(F)F (centres unmarked) [Ia-3] | 100 |  |
| COc1cc(CCNC(=O)c2ccccc2OC)ccn1 [Ic-59] |  | activity (percentage of larval mortality) (Cooperia curticei larvae): 90% |
| CC(CNC(=O)c1ccccc1C(F)(F)F)c1ncc(C(F)(F)F)cc1Cl (centres unmarked) [Ia-92] | 100 |  |
| CC(Cc1ncc(C(F)(F)F)cc1Cl)NC(=O)c1ccccc1[N+](=O)[O-] (centres unmarked) [Ia-196] | 90 |  |
| O=C(NCCc1cnc(C(F)(F)F)cc1Cl)c1ccccc1C(F)F [Ib-50] | 70 | activity (percentage of larval mortality) ([1]; application rate 100 ppm): 100% |
| CC(CNC(=O)c1ccccc1C(F)(F)F)c1ccc(C(F)(F)F)cn1 (centres unmarked) [Ia-46] | 100 |  |
| O=C(NCCc1cc(F)ncc1F)c1ccccc1C(F)(F)F [Ic-7] | 100 | activity (percentage of larval mortality) ([1]; application rate 100 ppm): 100% |
| O=C(NCC(F)(F)c1ncc(C(F)(F)F)cc1Cl)c1ccccc1C(F)(F)F [Ia-148] | 100 |  |
| CC(Cc1ncc(C(F)(F)F)cc1Cl)NC(=O)c1ccccc1Cl (centres unmarked) [Ia-141] | 100 |  |
| CCC(Cc1ncc(C(F)(F)F)cc1Cl)NC(=O)c1ccccc1C(F)(F)F (centres unmarked) [Ia-110] | 100 |  |
| CC(Cc1ncc(C(F)(F)F)cc1Cl)NC(=O)c1ccccc1I (centres unmarked) [Ia-140] | 100 |  |
| CN(C)C(CNC(=O)c1ccccc1Cl)c1ncc(C(F)(F)F)cc1Cl (centres unmarked) [Ia-211] | 90 |  |
| CC(CNC(=O)c1ccccc1C(F)(F)F)c1ncc(Cl)cc1Cl (centres unmarked) [Ia-113] | 100 |  |
| Cc1cc(CCNC(=O)c2ccccc2C(F)(F)F)c(Cl)cn1 [Ic-5] | 90 |  |
| CN(C)C(CNC(=O)c1ccccc1C(F)(F)F)c1ncc(C(F)(F)F)cc1Cl (centres unmarked) [Ia-212] | 90 |  |
| COC(=O)C(CNC(=O)c1ccccc1C(F)(F)F)(C(=O)OC)c1ncc(C(F)(F)F)cc1Cl [Ia-1] |  | activity (percentage of larval mortality) ([1]; application rate 100 ppm): 90% |
| COc1cc(CCNC(=O)c2ccc(C(F)(F)F)cc2)ccn1 [Ic-60] |  | activity (percentage of larval mortality) (Cooperia curticei larvae): 90% |
| CC(C)(CNC(=O)c1ccccc1C(F)(F)F)c1ncc(C(F)(F)F)cc1Cl [Ia-93, N-{2-[3-chloro-5-(trifluoromethyl)pyridin-2-yl]-2-methylpropyl}-2-(trifluoromethyl)benzamide] | 100 |  |
| O=C(NCCc1c(Cl)cncc1Cl)c1ccc(F)c(F)c1 [Ic-26] |  | activity (percentage of larval mortality) (Cooperia curticei larvae): 80% |
| COc1cc(CCNC(=O)c2cccc(Cl)c2)ccn1 [Ic-75] |  | activity (percentage of larval mortality) (Cooperia curticei larvae): 90% |
| CC(Cc1ncc(C(F)(F)F)cc1Cl)NC(=O)c1ccccc1C(F)(F)F (single isomer, unassigned) [Ia-122] | 100 |  |

| SMILES | nematicidal activity on the basis of the percentage of gall formation (Meloidogyne incognita) [%] | also measured |
| --- | --- | --- |
| CCC(CNC(=O)c1ccccc1C(F)(F)F)c1ccc(Cl)cn1 (centres unmarked) [Ia-131] | 100 |  |
| O=C(NCCc1c(F)c(F)nc(F)c1F)c1ccccc1I [Ic-2] | 100 |  |
| O=C(NCCc1cnc(C(F)(F)F)cc1Cl)c1ccccc1Br [Ib-52] |  | activity (percentage of larval mortality) ([1]; application rate 20 ppm): 80% |
| CCOC(=O)C(CNC(=O)c1ccccc1C(F)(F)F)(C(=O)OC)c1ncc(C(F)(F)F)cc1Cl (centres unmarked) [Ia-6] |  | activity (percentage of larval mortality) ([1]; application rate 100 ppm): 80% |
| CC(Cc1ncc(C(F)(F)F)cc1Cl)NC(=O)c1c(F)cccc1C(F)(F)F (centres unmarked) [Ia-174] | 90 |  |
| CCc1ccc(C(=O)NCCc2ccnc(OC)c2)cc1 [Ic-58] |  | activity (percentage of larval mortality) (Cooperia curticei larvae): 80% |
| CC(NC(=O)c1ccccc1C(F)(F)F)C(CC1CC1)c1ncc(C(F)(F)F)cc1Cl (mixture of isomers) [Ia-143] | 100 |  |
| O=C(NCCc1cnc(C(F)(F)F)cc1Cl)c1ccccc1[N+](=O)[O-] [Ib-58] | 90 |  |
| COC(=O)C(CNC(=O)c1ccccc1C(F)(F)F)c1ncc(C(F)(F)F)cc1Cl (centres unmarked) [Ia-5] |  | activity (percentage of larval mortality) ([1]; application rate 100 ppm): 80% |
| Cc1c(F)cccc1C(=O)NCC(C)c1ncc(C(F)(F)F)cc1Cl (centres unmarked) [Ia-70] | 100 |  |
| O=C(NCCc1c(F)c(F)nc(F)c1F)c1ccccc1C(F)(F)F [Ic-1] | 100 | activity (percentage of larval mortality) ([1]; application rate 100 ppm): 100% |
| CC(Cc1ncc(C(F)(F)F)cc1Cl)NC(=O)c1ccccc1C(F)F (centres unmarked) [Ia-154] | 100 |  |
| O=C(NCC(F)(F)c1ncc(Cl)cc1Cl)c1ccccc1I [Ia-142] | 100 |  |
| O=C(NCC1(c2ccc(Cl)cn2)CC1)c1ccccc1C(F)(F)F [Ia-48] |  | activity (percentage of larval mortality) ([1]; application rate 100 ppm): 80% |
| CC(Cc1ncc(C(F)(F)F)cc1Cl)NC(=O)c1ccccc1F (centres unmarked) [Ia-172] | 90 |  |
| CC(Cc1ncc(C(F)(F)F)cc1Cl)NC(=O)c1ccccc1C(F)(F)F (centres unmarked) [Ia-43] | 100 |  |
| CC(CNC(=O)c1ccccc1I)c1ccc(C(F)(F)F)c(Cl)n1 (centres unmarked) [Ia-50] | 100 |  |
| CC(Cc1ncc(C(F)(F)F)cc1Cl)NC(=O)c1c(F)cccc1F (centres unmarked) [Ia-170] | 90 |  |
| CC(CNC(=O)c1ccccc1I)c1ncc(C(F)(F)F)cc1Cl (centres unmarked) [Ia-177] | 100 |  |
| CC(Cc1ncc(C(F)(F)F)cc1Cl)NC(=O)c1ccccc1Br (centres unmarked) [Ia-153] | 100 |  |
| CC(CNC(=O)c1ccccc1I)c1ncc(Cl)cc1Cl (centres unmarked) [Ia-114] | 100 |  |
| O=C(NCCc1cnc(C(F)(F)F)cc1Cl)c1ccccc1F [Ib-48] |  | activity (percentage of larval mortality) (Cooperia curticei larvae): 90%; activity (percentage of larval mortality) ([1]; application rate 100 ppm): 90% |
| O=C(NCCc1cnc(C(F)(F)F)cc1Cl)c1ccccc1C(F)(F)F [Ib-47] | 90 | activity (percentage of larval mortality) ([1]; application rate 100 ppm): 100% |
